“Also recorded” adds a separate entry of the source.
Key:
[1] = system: ovariectomized (ovx) mice; experiment: Effects of estrogen exposure on gonadal fat in ovariectomized WT, ERKO, BERKO and DERKO mice; type: in vivo; settings: for gonadal fat mass, WT mice: ovx WT mice
Text: Male double heterozygous (ERα^+/−β^+/−) mice were mated with female double heterozygous (ERα^+/−β^+/−) mice, resulting in ERα^+/+β^+/+ wildtype (WT); ERα^−/−β^+/+=ERKO, ERα^+/+β^−/−=BERKO and ERα^−/−β^−/−=DERKO offsprings (Vidal O et al (2000) Proc Natl Sci USA, 97, 5474). The diet, housing and genetic background was as previously described in Vidal O et al (2000) supra. In the estrogen exposure experiments all mice were ovariectomized. Ovaries were removed after a flank incision and the incisions were closed with metallic clips. Mice were left to recover for four days after ovariectomy before start of experiments. After recovery mice were injected s.c with 2.3 μg/mouse/day of 17β-estradiol benzoate (Sigma, St Louis, Mo., USA) for 5 days/week during three weeks time. Control mice received injections of vehicle oil (olive oil, Apoteksbolaget, Göteborg, Sweden).
Ovariectomized (ovx) mice, lacking one or both of the two known ERs, were given estrogen and the effects on gonadal fat was studied. The effects of estrogen in mice with both ERα and ERβ inactivated (DERKO) were compared with the effects of estrogen in wild type (WT) mice.
In Table 2, the left part describes the effects of estrogen on fat in ovx wild type (WT) and DERKO mice. Three months old ovx mice were treated for three weeks with 2.3 μg/mouse/day of 17β-estradiol 5 days/week or olive oil as control (=vehicle). n=7 for WT vehicle, n=7 for WT estrogen, n=7 for DERKO vehicle, n=8 for DERKO estrogen. Values are given as means±SEM and expressed as % increase over vehicle treated animal. **=p<0.01 compared with vehicle treated mice. ++=p<0.01 effect of estrogen in DERKO compared with the effect of estrogen in WT, Student t-test. The right part of Table 2 describes the calculation of estrogen receptor α/β dependent and independent effects of estrogen. The effects of estrogen in WT and DERKO mice, as described in the left part of the table, were used for the calculation of the proportion of ERα/β dependent and independent effects of estrogen. The values are given as % of the total effect seen in WT mice.

orx male rats = settings: cited from earlier work
[2] = calculated from effects in WT and DERKO mice, % of the total effect seen in WT mice

Compound	ERα/β Dependent effect of estrogen on Fat Weight [1, 2] [%]	ERα/β Independent effect of estrogen on Fat Weight [1, 2] [%]	gonadal fat mass, BERKO mice ([1]; ovx BERKO mice, estrogen treatment, result in words (FIG. 6))	gonadal fat mass, DERKO mice ([1]; ovx DERKO mice, estrogen treatment, result in words (FIG. 6))	Effect of Estrogen (%) on Fat Weight, DERKO ([1]; ovx DERKO mice, three months old, 2.3 μg/mouse/day s.c. 5 days/week for three weeks, mean±SEM, % increase over vehicle treated animal)	gonadal fat mass, WT mice ([1]; estrogen treatment, result in words (FIG. 6))	gonadal fat mass, WT mice ([1]; estrogen treatment, result in words (FIG. 6), listed as estrogen)	body weight (orx male rats)	food intake (orx male rats)	total serum cholesterol (orx male rats)
17β-estradiol benzoate [Estrogen]	93	7	reduced; also recorded: hyperresponsiveness	not	−2.0 ± 5.2++ %	reduction of gonadal fat mass	reduced	–	–	–
Oc1ccc2c(c1)CC[C@H](c1ccccc1)[C@@H]2c1ccc(OCCN2CCCC2)cc1 [lasofoxifene]	–	–	–	–	–	–	–	decreased	decreased	decreased

Reference: US20060211671A1, “Estrogen receptors” (priority 2001, published 2006)
